In paper PMC7473970, “Preformulation Studies of a Stable PTEN-PDZ Lipopeptide Able to Cross an In Vitro Blood-Brain-Barrier Model as a Potential Therapy for Alzheimer’s Disease” (Pharmaceutical Research, 2020):
Residues, ends and D or L forms follow the SMILES beside them.

Assays:
[1] = In vitro stability in 50% v/v mouse plasma; type: in vitro ADME; details: 37°C, HPLC-UV 220 nm, one phase decay, least square fit, n = 3
Experimental: CD-1 male mice (7 weeks old: Charles River Laboratories) were sacrificed with CO2, and blood was collected in K3E EDTA spray-coated vacutainers and kept on ice prior to centrifugation at 3000 rpm for 15 min at 4°C (Heraeus Multifuge 3sf). Mouse plasma samples were stored at −80°C before use in stability studies. Study was approved by the University of Portsmouth Animal Welfare and Ethical Review Body (UoP AWERB body, 817).
For testing, the plasma was diluted (1:1) in PBS without phenol and pre-warmed to 37°C. Peptides stocks (5 mM in DMSO) were prepared and maintained at −20°C before performing the stability studies. Peptide stock solutions (120 μL) were added to pre-warmed diluted plasma (50% v/v, 1080 μL) and maintained at 37°C with agitation (100 rpm: Grant Aqua Waterbath, Royston, UK). Samples (80 μL) were taken at 0, 3, 6,9, 15, 30, 45, 60, 90, 120, 180, 240, 360 and 1440 min, diluted with ice-cold acetonitrile (80 μL), vortexed and left in −80°C at least overnight to favor maximal protein precipitation. The samples were then vortexed again for 15 min (SciQuip microplate shaker, Shropshire, UK), centrifuged in a Thermo Sci Jouan B4i Centrifuge (Hemel Hampstead, UK) and the supernatant was transferred to an HPLC vial (200 μL).
The samples were analyzed at 40°C on a Phenomenex Lichrosorb RP8 C8 column (4.0 mm × 250 mm, 5 μm), using the gradient elution method on an Agilent HPLC system (Agilent Technologies, Cheadle, UK) equipped with an 1100 series degasser, quaternary pump, autosampler, and column heater, and attached to an Agilent 1200 series PDA detector and a 1250 series fluorescent detector. The flow rate was set at 1.2 mL min^-1, and the injection volume was set at 40 μL, while detection was performed at 220 nm. The mobile phase was a mixture of mobile phase A (0.1% TFA in water) and phase B (0.08% TFA in acetonitrile), and in the first 5 min, the mobile phase was an 8:2 ratio of A:B (v/v) and from 5 to 15 min the percentage of B was raised from 8:2 to 1:9 (v/v). Linear calibration curves were constructed for both peptides between 0.1–100 μg.mL^−1. The retention time for the human Lau–PTEN-PDZ, mouse Lau–PTEN-PDZ, human Myr–PTEN-PDZ, and mouse Myr–PTEN-PDZ was 12.03, 11.60, 13.68, and 13.91, respectively.

[2] = Permeability across in vitro 2D human blood-brain barrier model; type: in vitro ADME; details: read-out: Papp0-4h, Experiment 2
[3] = system: hCMEC/D3 cells; experiment: MTT metabolic activity assay in hCMEC/D3 cells; type: cell-based, human; details: 24 h versus 4 h exposure
Experimental: HCMEC/D3 (passage number 32–40) cultured in EBM-2 (Lonza) supplemented with the EGM-2 Bullet Kit™ (Lonza), and 2% v/v human serum (Sigma H3667, Batch: SLBW2276) were used to assess the cytotoxicity of lipidized peptides. The cells were subjected to routine mycoplasma testing and authenticated in house. The cells were seeded at 46,875 cells/cm^2 in complete medium, and allowed to attach overnight, refreshing the medium to treat the cells with peptide solutions. The peptide solutions were prepared from […] DMSO stocks at a final concentration between 1 and 400 μM in complete medium to ensure a final DMSO concentration of 0.5%, and 200 μL of the diluted stock was added to each well. The metabolic activity of the cells was measured after 4 and 24 h using the MTT (3-(4,5)-dimethylthiazol-2-yl)-2,5-diphenyltetrazolium bromide) assay. At the time points specified, the MTT solution was added to each well (20 μL at 5 mg.mL^−1 in PBS), and the cells were incubated for 4 h at 37°C. Subsequently, DMSO (100 μL) was added to dissolve the formazan crystals, and the absorbance was measured at 570 and 690 nm on a Multiskan Go microplate spectrophotometer, analyzing the data using the SkanIt software (Thermo Scientific, Paisley, UK). […]
IC50 values were calculated using Graphpad Prism 8.0 (San Diego, USA) and fitted using a non-linear regression model ([Inhibitor] vs. response (three parameters)).

k ([1]; 50% v/v CD-1 mouse plasma (K3 EDTA) in PBS, 120 μL of 5 mM DMSO stock in 1080 μL, 100 rpm, 0-1440 min): 0.80 h⁻¹ | t1/2 (h) ([1]; 50% v/v mouse plasma in PBS): 0.87 h | t1/2 (min) ([1]; 50% v/v mouse plasma in PBS): 52.16 min | Papp A→B at 100 μM [2]: 2.63 ± 0.08 ×10⁻⁶ cm/s
SMILES: CCCCCCCCCCCCCC(=O)N[C@@H](CCC(N)=O)C(=O)N[C@@H](Cc1c[nH]cn1)C(=O)N[C@@H](CO)C(=O)N[C@@H](CCC(N)=O)C(=O)N[C@H](C(=O)N[C@H](C(=O)N[C@@H](CCCCN)C(=O)N[C@H](C(=O)O)C(C)C)[C@@H](C)O)[C@@H](C)CC [Mouse Myr-PTEN-PDZ] (HELM PEPTIDE1{[CCCCCCCCCCCCCC(=O)[*:2]].Q.H.S.Q.I.T.K.V}$$$$V2.0)
Recovery of cell metabolic activity after 24 h [3]: did not allow the cells to recover after 24 h
